For this test, the target named is T1, recombinant human SYK360-635 (Homo sapiens, UniProt P43405).
T1 construct: made in house
The experiment in a line: Determination of IC50 of Spleen Tyrosine Kinase (SYK) inhibition, 33P ATP filtration assay. The format is biochemical. The settings on record: SYK aa 360-635 0.5 nM; ATP 20 μM, peptide 5 μM, 0.1% BSA; read-out: SYK_ENZYME_FILTRATION/v1, BSA.

Molecules are shown by their SMILES.

On to `Cn1nc(-c2cnc3[nH]cc(C(=O)N[C@]4(C)CC[C@H](N)CC4)c3n2)c2ccc(F)cc21` [Example I-417, 2-(6-Fluoro-1-methyl-1H-indazol-3-yl)-5H-pyrrolo[2,3-b]pyrazine-7-carboxylic acid (cis-4-amino-1-methyl-cyclohexyl)-amide], for which the IC50 came to 787 nM.
The value for `Cn1nc(-c2cnc3[nH]cc(C(=O)NC(C)(C)CO)c3n2)c2cc(C3CC3)ccc21` [Example I-196, 2-(5-Cyclopropyl-1-methyl-1H-indazol-3-yl)-5H-pyrrolo[2,3-b]pyrazine-7-carboxylic acid (2-hydroxy-1,1-dimethyl-ethyl)-amide] was 8 nM; that for `CC(C)(C)NC(=O)c1c[nH]c2ncc(-c3cccc4ccncc34)nc12` [Example I-444, 2-Isoquinolin-8-yl-5H-pyrrolo[2,3-b]pyrazine-7-carboxylic acid tert-butylamide] was 1040 nM.
As for `CC(C)(C)NC(=O)c1c[nH]c2ncc(-c3nn(CCC4OCCCO4)c4ccc(OC(F)F)cc34)nc12` [Example I-297, 2-[5-Difluoromethoxy-1-(2-[1,3]dioxan-2-yl-ethyl)-1H-indazol-3-yl]-5H-pyrrolo[2,3-b]pyrazine-7-carboxylic acid tert-butylamide], the IC50 came to 28.1 nM.
With `Cn1nc(-c2cnc3[nH]cc(C(=O)NC4(CO)CCC4)c3n2)c2ccc(F)cc21` [Example I-256, 2-(6-Fluoro-1-methyl-1H-indazol-3-yl)-5H-pyrrolo[2,3-b]pyrazine-7-carboxylic acid (1-hydroxymethyl-cyclobutyl)-amide], the IC50 was found to be 23.5 nM.
As for `Cn1nc(-c2cnc3[nH]cc(C(=O)NC(CO)CO)c3n2)c2ccc(Cl)cc21` [Example I-316, 2-(6-Chloro-1-methyl-1H-indazol-3-yl)-5H-pyrrolo[2,3-b]pyrazine-7-carboxylic acid (2-hydroxy-1-hydroxymethyl-ethyl)-amide], the IC50 came out at 14.6 nM.
Consider `Cc1cccc2c(-c3cnc4[nH]cc(C(=O)NC(C)(C)CO)c4n3)n[nH]c12` [Example I-372, 2-(7-Methyl-1H-indazol-3-yl)-5H-pyrrolo[2,3-b]pyrazine-7-carboxylic acid (2-hydroxy-1,1-dimethyl-ethyl)-amide], for which the IC50 amounted to 5.12 nM.
With `CNC(=O)Cn1nc(-c2cnc3[nH]cc(C(=O)NC(C)(C)C)c3n2)c2cc(OC(F)F)ccc21` [Example I-354, 2-(5-Difluoromethoxy-1-methylcarbamoylmethyl-1H-indazol-3-yl)-5H-pyrrolo[2,3-b]pyrazine-7-carboxylic acid tert-butylamide], the IC50 is 14.4 nM.
For the compound `Cn1nc(-c2cnc3[nH]cc(C(=O)NC(C)(C)C(=O)O)c3n2)c2ccc(F)cc21` [Example I-382, 2-{[2-(6-Fluoro-1-methyl-1H-indazol-3-yl)-5H-pyrrolo[2,3-b]pyrazine-7-carbonyl]-amino}-2-methyl-propionic acid], the IC50 was determined as 945 nM.
As to `Cn1nc(-c2cnc3[nH]cc(C(=O)NC(C)(C)C)c3n2)c2cc(OCCCC(C)(C)N)ccc21` [Example I-449, 2-(5-(4-Amino-4-methylpentyloxy)-1-methyl-1H-indazol-3-yl)-N-tert-butyl-5H-pyrrolo[3,2-b]pyrazine-7-carboxamide 2,2,2-trifluoroacetate], the IC50 amounted to 46.9 nM.
The value for `COc1nn(-c2cnc3[nH]cc(C(=O)NC(C)(C)CO)c3n2)c2ccccc12` [Example I-344, 2-(3-Methoxy-indazol-1-yl)-5H-pyrrolo[2,3-b]pyrazine-7-carboxylic acid (2-hydroxy-1,1-dimethyl-ethyl)-amide] was 8.88 nM; that for `Cn1nc(-c2cnc3[nH]cc(C(=O)NC(C)(C)C)c3n2)c2cc(S(C)(=O)=O)ccc21` [Example I-461, N-tert-Butyl-2-(1-methyl-5-(methylsulfonyl)-1H-indazol-3-yl)-5H-pyrrolo[3,2-b]pyrazine-7-carboxamide] was 144 nM; that for `Cn1nc(-c2cnc3[nH]cc(C(=O)NC(C)(C)C(F)(F)F)c3n2)c2ccc(Cl)cc21` [Example I-390, 2-(6-Chloro-1-methyl-1H-indazol-3-yl)-5H-pyrrolo[2,3-b]pyrazine-7-carboxylic acid (2,2,2-trifluoro-1,1-dimethyl-ethyl)-amide] was 42.4 nM.
Then `Cn1nc(-c2cnc3[nH]cc(C(=O)NC(C)(C)CCCN)c3n2)c2ccc(F)cc21` [Example I-408, 2-(6-Fluoro-1-methyl-1H-indazol-3-yl)-5H-pyrrolo[2,3-b]pyrazine-7-carboxylic acid (4-amino-1,1-dimethyl-butyl)-amide], with 52.7 nM; and `CC(C)(C)NC(=O)c1c[nH]c2ncc(-c3nn(CC(=O)N4CCN(CC(F)(F)F)CC4)c4ccc(OC(F)F)cc34)nc12` [Example I-352, 2-(5-Difluoromethoxy-1-{2-oxo-2-[4-(2,2,2-trifluoro-ethyl)-piperazin-1-yl]-ethyl}-1H-indazol-3-yl)-5H-pyrrolo[2,3-b]pyrazine-7-carboxylic acid tert-butylamide], with 15.9 nM; and `Cn1nc(-c2cnc3[nH]cc(C(=O)NC(C)(C)CN)c3n2)c2ccc(Cl)cc21` [Example I-397, 2-(6-Chloro-1-methyl-1H-indazol-3-yl)-5H-pyrrolo[2,3-b]pyrazine-7-carboxylic acid (2-amino-1,1-dimethyl-ethyl)-amide], with 219 nM.
For the compound `CCc1cccc2c(-c3cnc4[nH]cc(C(=O)NC(C)(C)C)c4n3)n[nH]c12` [Example I-355, 2-(7-Ethyl-1H-indazol-3-yl)-5H-pyrrolo[2,3-b]pyrazine-7-carboxylic acid tert-butylamide], the IC50 came to 3.19 nM.
Regarding `Cc1ccc2c(-c3cnc4[nH]cc(C(=O)NC5(C#N)CC5)c4n3)nn(C)c2c1` [Example I-424, 2-(1,6-Dimethyl-1H-indazol-3-yl)-5H-pyrrolo[2,3-b]pyrazine-7-carboxylic acid (1-cyano-cyclopropyl)-amide], the IC50 was determined as 7.7 nM.
Turning to `C[C@@H](CO)NC(=O)c1c[nH]c2ncc(-c3n[nH]c4cc(Cl)ccc34)nc12` [Example I-419, 2-(6-Chloro-1H-indazol-3-yl)-5H-pyrrolo[2,3-b]pyrazine-7-carboxylic acid ((S)-2-hydroxy-1-methyl-ethyl)-amide], the IC50 was 6.9 nM.
As to `COc1ccc2c(c1)c(-c1cnc3[nH]cc(C(=O)N[C@@H]4CCOC[C@@H]4N)c3n1)nn2C` [Example I-290, 2-(5-Methoxy-1-methyl-1H-indazol-3-yl)-5H-pyrrolo[2,3-b]pyrazine-7-carboxylic acid ((3R,4R)-3-amino-tetrahydro-pyran-4-yl)-amide], the IC50 was determined as 2130 nM.
The value for `CC(C)NC(=O)c1c[nH]c2ncc(-c3nn(C)c4c3CCC(C)(C)C4)nc12` [Example I-279, 2-(1,6,6-Trimethyl-4,5,6,7-tetrahydro-1H-indazol-3-yl)-5H-pyrrolo[2,3-b]pyrazine-7-carboxylic acid isopropylamide] was 277 nM.

These data come from patent US8658646B2, “Pyrrolopyrazine kinase inhibitors” (Hoffmann-LaRoche Inc., priority 2011, dated 2014).
